Results as given in patent US20090226527A1, “Particulate-stabilized injectable pharmacutical compositions of posaconazole” (priority 2004, published 2009).
Converted amounts (≈) assume the structure as drawn.

Tested on: infectious agents (strains tested)
Experiment: organism not typed
Assay type: cell-based

CCC(C)n1ncn(-c2ccc(N3CCN(c4ccc(OCC5COC(Cn6cncn6)(c6ccc(Cl)cc6Cl)O5)cc4)CC3)cc2)c1=O (centres unmarked) [Itraconazole]
MIC (Absidia spp, read-out: Geometric Mean MIC): 0.229 µg/mL (≈ 0.325 µM)
MIC (Absidia spp, read-out: MIC[90]): 0.063 to 2 µg/mL (≈ 0.0893 to 2.83 µM)
MIC (Alternaria spp, read-out: Geometric Mean MIC): 0.326 µg/mL (≈ 0.462 µM)
MIC (Alternaria spp, read-out: MIC[90]): 1 µg/mL (≈ 1.42 µM)
MIC (Apophysomyces spp, read-out: Geometric Mean MIC): 0.707 µg/mL (≈ 1 µM)
MIC (Apophysomyces spp, read-out: MIC[90]): 0.031 to 8 µg/mL (≈ 0.0439 to 11.3 µM)
MIC (Arthroderma terrestre, Trichophyton terrestre, read-out: Geometric Mean MIC): 0.25 µg/mL (≈ 0.354 µM)
MIC (Arthroderma terrestre, Trichophyton terrestre, read-out: MIC[90]): 0.25 µg/mL (≈ 0.354 µM)
MIC (Aspergillus flavus, read-out: Geometric Mean MIC): 0.213 µg/mL (≈ 0.302 µM)
MIC (Aspergillus flavus, read-out: MIC[90]): 1 µg/mL (≈ 1.42 µM)
MIC (Aspergillus fumigatus, read-out: Geometric Mean MIC): 0.397 µg/mL (≈ 0.563 µM)
MIC (Aspergillus fumigatus, read-out: MIC[90]): 1 µg/mL (≈ 1.42 µM)
MIC (Aspergillus nidulans, read-out: Geometric Mean MIC): 0.186 µg/mL (≈ 0.264 µM)
MIC (Aspergillus nidulans, read-out: MIC[90]): 0.5 µg/mL (≈ 0.709 µM)
MIC (Aspergillus niger, read-out: Geometric Mean MIC): 0.834 µg/mL (≈ 1.18 µM)
MIC (Aspergillus niger, read-out: MIC[90]): 2 µg/mL (≈ 2.83 µM)
MIC (Aspergillus sydowii, read-out: Geometric Mean MIC): 0.5 µg/mL (≈ 0.709 µM)
MIC (Aspergillus sydowii, read-out: MIC[90]): 0.125 to 2 µg/mL (≈ 0.177 to 2.83 µM)
MIC (Aspergillus terreus, read-out: Geometric Mean MIC): 0.229 µg/mL (≈ 0.325 µM)
MIC (Aspergillus terreus, read-out: MIC[90]): 0.5 µg/mL (≈ 0.709 µM)
MIC (Aspergillus ustus, read-out: Geometric Mean MIC): 0.906 µg/mL (≈ 1.28 µM)
MIC (Aspergillus ustus, read-out: MIC[90]): 0.125 to 2 µg/mL (≈ 0.177 to 2.83 µM)
MIC (Bipolaris spp, read-out: Geometric Mean MIC): 0.25 µg/mL (≈ 0.354 µM)
MIC (Bipolaris spp, read-out: MIC[90]): 0.25 µg/mL (≈ 0.354 µM)
MIC (Bjerkandera adusta, read-out: Geometric Mean MIC): 0.057 µg/mL (≈ 0.0808 µM)
MIC (Bjerkandera adusta, read-out: MIC[90]): 0.063 µg/mL (≈ 0.0893 µM)
MIC (Blastomyces dermatitidis, read-out: Geometric Mean MIC): 0.045 µg/mL (≈ 0.0638 µM)
MIC (Blastomyces dermatitidis, read-out: MIC[90]): 2 µg/mL (≈ 2.83 µM)
MIC (Candida albicans, read-out: Geometric Mean MIC): 0.064 µg/mL (≈ 0.0907 µM)
MIC (Candida albicans, read-out: MIC[90]): 0.25 µg/mL (≈ 0.354 µM)
MIC (Candida dubliniensis, read-out: Geometric Mean MIC): 0.107 µg/mL (≈ 0.152 µM)
MIC (Candida dubliniensis, read-out: MIC[90]): 0.5 µg/mL (≈ 0.709 µM)
MIC (Candida tropicalis, read-out: Geometric Mean MIC): 0.167 µg/mL (≈ 0.237 µM)
MIC (Candida tropicalis, read-out: MIC[90]): 0.5 µg/mL (≈ 0.709 µM)
MIC (Clavispora lusitaniae, Candida lusitaniae, read-out: Geometric Mean MIC): 0.216 µg/mL (≈ 0.306 µM)
MIC (Clavispora lusitaniae, Candida lusitaniae, read-out: MIC[90]): 1 µg/mL (≈ 1.42 µM)
MIC (Coccidioides immitis, read-out: Geometric Mean MIC, Coccidioides immitis): 0.198 µg/mL (≈ 0.281 µM)
MIC (Coccidioides immitis, read-out: MIC[90], Coccidioides immitis): 0.25 µg/mL (≈ 0.354 µM)
MIC (Cryptococcus neoformans, read-out: Geometric Mean MIC): 0.444 µg/mL (≈ 0.629 µM)
MIC (Cryptococcus neoformans, read-out: MIC[90]): 4 µg/mL (≈ 5.67 µM)
MIC (Curvularia spp, read-out: Geometric Mean MIC): 0.5 µg/mL (≈ 0.709 µM)
MIC (Curvularia spp, read-out: MIC[90]): 0.5 µg/mL (≈ 0.709 µM)
MIC (Debaryomyces hansenii, Candida famata, read-out: Geometric Mean MIC): 0.348 µg/mL (≈ 0.493 µM)
MIC (Debaryomyces hansenii, Candida famata, read-out: MIC[90]): 1 µg/mL (≈ 1.42 µM)
MIC (Diutina rugosa, Candida rugosa, read-out: Geometric Mean MIC): 0.196 µg/mL (≈ 0.278 µM)
MIC (Diutina rugosa, Candida rugosa, read-out: MIC[90]): 4 µg/mL (≈ 5.67 µM)
MIC (Dujonia zeylanoides, Candida zeylanoides, read-out: Geometric Mean MIC): 0.105 µg/mL (≈ 0.149 µM)
MIC (Dujonia zeylanoides, Candida zeylanoides, read-out: MIC[90]): 0.031 to 0.5 µg/mL (≈ 0.0439 to 0.709 µM)
MIC (Epidermophyton floccosum, read-out: Geometric Mean MIC): 0.088 µg/mL (≈ 0.125 µM)
MIC (Epidermophyton floccosum, read-out: MIC[90]): 32 µg/mL (≈ 45.3 µM)
MIC (Exophiala dermatidis, read-out: Geometric Mean MIC): 1 µg/mL (≈ 1.42 µM)
MIC (Exophiala dermatidis, read-out: MIC[90]): 1 µg/mL (≈ 1.42 µM)
MIC (Exophiala dermatitidis, Wangiella dermatitidis, read-out: Geometric Mean MIC): 0.5 µg/mL (≈ 0.709 µM)
MIC (Exophiala dermatitidis, Wangiella dermatitidis, read-out: MIC[90]): 0.063 to 1 µg/mL (≈ 0.0893 to 1.42 µM)
MIC (Exophiala jeanselmei, read-out: Geometric Mean MIC): 0.467 µg/mL (≈ 0.662 µM)
MIC (Exophiala jeanselmei, read-out: MIC[90]): 1 µg/mL (≈ 1.42 µM)
MIC (Exophiala moniliae, read-out: Geometric Mean MIC): 0.031 µg/mL (≈ 0.0439 µM)
MIC (Exophiala moniliae, read-out: MIC[90]): 0.031 µg/mL (≈ 0.0439 µM)
MIC (Fonsecae pedrosoi, read-out: Geometric Mean MIC): 0.063 µg/mL (≈ 0.0893 µM)
MIC (Fonsecae pedrosoi, read-out: MIC[90]): 0.008 to 0.5 µg/mL (≈ 0.0113 to 0.709 µM)
MIC (Fusarium spp, read-out: Geometric Mean MIC): 13.3 µg/mL (≈ 18.8 µM)
MIC (Fusarium spp, read-out: MIC[90]): 16 µg/mL (≈ 22.7 µM)
